Experimental data: publication PMC9768319 (iScience, 2022)
Where two headings read alike, the source gives them in different places.

Assays:
Panc-1 cells = assay: Cell confluence growth inhibition; format: cell-based, human
KPC1242 cells [1] = assay: Ki-67 proliferation staining; format: cell-based, murine; settings: KPC1242, 24-h treatment, MMe 0.7 μM or pCF3-MMe 3 μM
AsPC-1 cells = assay: TMRE retention by flow cytometry; format: cell-based, human; settings: AsPC-1, serum-starved, 1 h treatment
HPSC cells = assay: TMRE retention by flow cytometry; format: cell-based, human; settings: serum-starved, 1 h treatment
KPC1242 cells [2] = assay: Luminescent ATP detection assay; format: cell-based, murine; settings: KPC1242, 24 h, 0.7 μM MMe or 3 μM pCF3-MMe
[3] = test system: AMP-Activated Protein Kinase (AMPK); assay: AMPK Thr172 phosphorylation immunoblot; format: cell-based, murine; settings: KPC1242, 0.7 μM MMe or 3 μM pCF3-MMe
[4] = format: in vivo, mice
[5] = Tolerability, single intra-peritoneal injection in non-tumor-bearing mice; format: in vivo
[6] = Tolerability, daily injection for 5 consecutive days in non-tumor-bearing mice; format: in vivo; settings: daily for 5 consecutive days, 25 μg/mouse to 1 mg/mouse
HPNE and HPSC cells = format: cell-based, human; settings: for sensitivity of normal, non-transformed cells compared to cancer cells: HPNE and HPSC vs cancer cells
[7] = test system: cancer cells (KPC1242, Panc-1, AsPC-1, HCT-116, MDA-MB-231, OVCAR-4, OVCAR-8); assay: Cell confluence across the battery of cancer cell lines; format: cell-based; settings: escalating concentrations (0.1 µM-10 µM)
[8] = after administration; cited from earlier work
[9] = test system: pancreatic, breast, and colon cancers; settings: cited from earlier work

SMILES | reduction in Ki-67 levels (KPC1242 cells [1]) | TMRE accumulation within mitochondria (AsPC-1 cells) | TMRE accumulation within mitochondria (HPSC cells) | Levels of ATP (KPC1242 cells [2]) | AMPK activation (Thr172 phosphorylation) [3] | tolerability of repeated injection [6] | sensitivity of normal, non-transformed cells compared to cancer cells (HPNE and HPSC cells) | reduction in toxicity to normal cells compared to MMe (HPNE and HPSC cells) [fold] | cell confluency [7] | further results
COc1ccc([P+](CCCCCCCCCCNC(=N)CC(=N)N)(c2ccc(OC)cc2)c2ccc(OC)cc2)cc1.[Br-] [pMeO-MMe, [10-(2-carbamimidoylethanimidamido)decyl]tris(4-methoxyphenyl)phosphonium bromide] | – | – | – | – | – | – | – | – | – | confluence of human pancreatic cancer cells (Panc-1 cells; Panc-1 (Figure S5), escalating concentrations): concentration-dependent decrease in confluence; efficacy in pancreas cancer cells (Panc-1 cells; in contrast to the fluorinated compound): lower efficacy
N=C(N)NC(=N)NCCCCCCCCCC[P+](c1ccc(C(F)(F)F)cc1)(c1ccc(C(F)(F)F)cc1)c1ccc(C(F)(F)F)cc1.[Br-] [pCF3-MMe, (10-(3-carbamimidoylguanidino)decyl)tris(4-(trifluoromethyl)phenyl)phosphonium bromide] | 20-30% | significantly reduced TMRE accumulation | did not affect TMRE accumulation | significantly reduced | significant increase in AMPK activation | tolerated a 1 mg dose | more than a log-unit less sensitive | ~10 | decreased in a concentration-dependent manner | detection in the blood and liver ([4]; 2 h after intra-tumoral injection of 1 mg): undetectable; detection in the blood and liver ([4]; 6 h after injection (not shown)): barely detectable above the signal-to-noise ratio; levels within the tumors ([4]; 24 h after injection, 1 mg/mouse): measurable levels; mice surviving ([5]; single intra-peritoneal injection of 1 mg): 100%; toxic effects toward non-transformed HPNE and HPSC-1 cells (HPNE and HPSC cells; compared to parent MMe and mCF3-MMe): least toxic effects
COC1=C(OC)C(=O)C(CCCCCCCCCC[P+](c2ccccc2)(c2ccccc2)c2ccccc2)=C(C)C1=O [MitoQ] | – | – | – | – | – | – | – | – | – | half-life [8]: ~30 min
N=C(N)NC(=N)NCCCCCCCCCC[P+](c1cccc(C(F)(F)F)c1)(c1cccc(C(F)(F)F)c1)c1cccc(C(F)(F)F)c1.[Br-] [mCF3-MMe, (10-(3-carbamimidoylguanidino)decyl)tris(3-(trifluoromethyl)phenyl)phosphonium bromide] | – | – | – | – | – | – | more than a log-unit less sensitive | ~10 | decreased in a concentration-dependent manner | –
N=C(N)NC(=N)NCCCCCCCCCC[P+](c1ccccc1)(c1ccccc1)c1ccccc1.[Br-] [MMe, 10-[(carbamimidamidomethanimidoyl)amino]decyl-triphenylphosphonium bromide] | 20-30% | significantly reduced TMRE accumulation | did not affect TMRE accumulation | significantly reduced | significant increase in AMPK activation | succumbed to 4-fold lower doses | more than a log-unit less sensitive | – | decreased in a concentration-dependent manner | mortality after single injection ([5]; single intra-peritoneal injection of 250 μg or 1 mg): significant and rapid mortality; fold more efficacious compared to metformin [9]: 100- to 1000 fold
